Data taken from publication PMC12518037, “Design, Synthesis, Biological Evaluation, and In Silico Study of Tetrahydropyridines as Prospective Monoamine Oxidase Inhibitors” (ChemistryOpen, 2025).

Legend:
[1] = biological target: T1, MAO‐A (Homo sapiens, UniProt P21397); assay: MAO-A inhibition assay (Amplex red fluorescence, tyramine substrate); assay type: biochemical; settings: percent inhibition observed at 100 μM
T1 sequence (P21397 1-527): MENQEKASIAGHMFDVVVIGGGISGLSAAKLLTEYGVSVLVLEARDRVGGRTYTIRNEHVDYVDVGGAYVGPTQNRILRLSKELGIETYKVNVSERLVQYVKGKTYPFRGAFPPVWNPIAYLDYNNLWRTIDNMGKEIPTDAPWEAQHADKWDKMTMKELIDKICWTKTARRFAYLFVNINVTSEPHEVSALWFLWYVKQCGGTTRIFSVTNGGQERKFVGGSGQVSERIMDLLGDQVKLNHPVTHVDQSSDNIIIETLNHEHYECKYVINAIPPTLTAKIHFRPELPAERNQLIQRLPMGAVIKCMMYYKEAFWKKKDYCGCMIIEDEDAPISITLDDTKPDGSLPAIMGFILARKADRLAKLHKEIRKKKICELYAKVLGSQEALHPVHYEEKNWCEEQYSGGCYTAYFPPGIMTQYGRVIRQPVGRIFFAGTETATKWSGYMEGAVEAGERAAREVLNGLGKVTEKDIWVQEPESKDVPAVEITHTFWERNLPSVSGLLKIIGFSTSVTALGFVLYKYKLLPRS
Protocol: (§1) The range of compounds used in the study started at 1 mM for the initial screening to determine the percentage of inhibition. […] For 10 minutes, the reaction mixture was incubated at 37 °C. Tyramine, a substrate with a final concentration of 0.30 mM, was added to each well after 15 minutes, followed by 10 μL of Amplex red, a fluorogenic substrate. The FLUOstar Omega fluorescence plate reader (BMG Labtech GmbH, Ortenberg, Germany) was used to detect the change in fluorescence.

[2] = biological target: T2, MAO‐B (Homo sapiens, UniProt P27338); assay: MAO-B inhibition assay (Amplex red fluorescence, tyramine substrate); assay type: biochemical; settings: percent inhibition observed at 100 μM
T2 sequence (P27338 2-520): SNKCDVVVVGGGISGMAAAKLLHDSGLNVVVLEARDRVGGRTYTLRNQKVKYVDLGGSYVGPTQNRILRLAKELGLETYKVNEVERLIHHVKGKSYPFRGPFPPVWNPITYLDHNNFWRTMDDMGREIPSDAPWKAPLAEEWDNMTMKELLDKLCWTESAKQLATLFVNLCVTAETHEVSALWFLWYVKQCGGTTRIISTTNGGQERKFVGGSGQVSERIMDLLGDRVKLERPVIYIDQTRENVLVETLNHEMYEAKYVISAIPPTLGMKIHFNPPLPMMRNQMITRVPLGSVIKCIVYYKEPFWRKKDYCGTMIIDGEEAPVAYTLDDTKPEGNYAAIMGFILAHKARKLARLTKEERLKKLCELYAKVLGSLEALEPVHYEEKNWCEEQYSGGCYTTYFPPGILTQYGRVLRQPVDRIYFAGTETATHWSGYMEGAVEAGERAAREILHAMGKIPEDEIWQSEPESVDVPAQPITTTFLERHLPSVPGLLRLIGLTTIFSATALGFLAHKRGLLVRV
Protocol: as §1

Row | Compound | inhibition at 100 µM [1] [%] | inhibition at 100 µM [2] [%]
1 | CCOC(=O)C1=C(Nc2ccc(Cl)cc2)CC(c2ccccc2)N(c2ccc(Cl)cc2)C1c1ccccc1 (centres unmarked) [4 b, Ethyl 1‐(4‐chlorophenyl)‐4‐(4‐chlorophenylamino)‐2,6‐diphenyl‐1,2,5,6‐tetrahydropyridine‐3‐carboxylate] | 40 | 
2 | CCOC(=O)C1=C(Nc2ccc(Br)cc2)CC(c2ccc(Cl)cc2)N(c2ccc(Br)cc2)C1c1ccc(Cl)cc1 (centres unmarked) [4 h, Ethyl 1‐(4‐bromophenyl)‐4‐(4‐bromophenylamino)‐2,6‐bis(4‐chlorophenyl)‐1,2,5,6‐tetrahydropyridine‐3‐carboxylate] | < 50 | 
3 | CCOC(=O)C1=C(Nc2ccc(OC)cc2)CC(c2ccc(Cl)cc2)N(c2ccc(OC)cc2)C1c1ccc(Cl)cc1 (centres unmarked) [4 i, Ethyl 2,6‐bis(4‐chlorophenyl)‐1‐(4‐methoxyphenyl)‐4‐(4‐methoxyphenylamino)‐1,2,5,6‐tetrahydropyridine‐3‐carboxylate] | < 50 | < 50
4 | CCOC(=O)C1=C(Nc2ccc(C)cc2)CC(c2ccc(Cl)cc2)N(c2ccc(C)cc2)C1c1ccc(Cl)cc1 (centres unmarked) [4 j, Ethyl 4‐(p–toluidino)‐2,6‐bis(4‐chlorophenyl)‐1‐p–tolyl‐1,2,5,6‐tetrahydropyridine‐3‐carboxylate] | < 50 | < 50
5 | CCOC(=O)C1=C(Nc2ccc(Cl)cc2)CC(c2ccc([N+](=O)[O-])cc2)N(c2ccc(Cl)cc2)C1c1ccc([N+](=O)[O-])cc1 (centres unmarked) [4 l, Ethyl 1‐(4‐chlorophenyl)‐4‐(4‐chlorophenylamino)‐2,6‐bis(4‐nitrophenyl)‐1,2,5,6‐tetrahydropyridine‐3‐carboxylate] |  | 23
6 | CCOC(=O)C1=C(Nc2ccc(Br)cc2)CC(c2ccc([N+](=O)[O-])cc2)N(c2ccc(Br)cc2)C1c1ccc([N+](=O)[O-])cc1 (centres unmarked) [4 m, Ethyl 1‐(4‐bromophenyl)‐4‐(4‐bromophenylamino)‐2,6‐bis(4‐nitrophenyl)‐1,2,5,6‐tetrahydropyridine‐3‐carboxylate] |  | 46
